Measured values published in patent US7217723B2, “Heterocyclic compound having oxime group” (Eisai Co., Ltd., priority 2004, dated 2007).

Molecular target: STAT6 activation
Experiment: STAT6 activation inhibition test (IL-4-induced alkaline phosphatase STAT6 reporter gene assay)
Type: cell-based, human
Details: concentration giving 50% suppression of alkaline phosphatase activity induced by IL-4 (1 ng/mL), 16 hours, 293 cells stably expressing STAT6 gene and STAT6 reporter gene
Protocol: The inhibitory activity on STAT6 activation of the compound according to present invention was evaluated according to the following test.
1) Construction of the STAT6 Reporter Gene
The oligonucleotide of SEQ ID: 1 resuting from three STAT6 binding regions of the human immunoglobulin germline ε gene promoter linked togeter, and the complementary strand thereof were mixed, and after thermal denaturation and annealing, the 5′ and the 3′ ends were respectively cut with the restriction enzymes Kpn I (TaKaRa Shuzo Code No. 1068A) and Xba I (TaKaRa ShuzoCode No. 1093A), and the resulting fragment was cloned into the Kpn I/Xba I site of the pUG-BGH-PLAP vector (described in Molecular Pharmacology, 49: 860–873 1996). In addition, the TK promoter region of the herpesvirus for inducing general transcription factors was cloned into the Xba I/Hind III (TaKaRa ShuzoCode No. 1060A) site of the pUG-BGH-PLAP vector. Then, to collect a stable expression cell strain, the neomycin resistance gene, that is a PGK-neo expression cassette, was incorporated into the Sal I (TaKaRa Shuzo, Code No. 1080A) site of this vector. Cloning of the TK promoter and the PGK-neo expression cassette was carried out according to Molecular Pharmacology, 49: 860–873 1996.
2) Construction of the STAT6 Expression Vector
Using the oligonucleotide of SEQ ID: 2 containing the initiation codon of the STAT6 gene and the oligonucleotide of SEQ ID: 3 containing the stop codon, Total RNA was prepared from human peripheral blood cells with the RNeasy Mini kit (OIAGEN, Code No. 74104). Thereafter, a reverse transcription reaction was carried out with the Takara RNA LA PCR kit (TaKaRa Shuzo, Code No. RR012A) to prepare cDNA, and using the primers of SEQ ID: 2 and 3, a PCR reaction was carried out, to amplify the STAT6 gene.
PCR product was digested with EcoR I (TaKaRa Shuzo, Code No. 1040A) and Xho I (TaKaRa Shuzo, 1094A), thereafter, the digested fragment was isolated on an agarose gel. The isolated fragment was incorporated into the vector fragment derived from the EcoR I/Xho I digestion of the pcDNA3.1 (+) (invtrogen, Code No. U790-20) vector.
3) Transformation and Preparation of a Stable Expression Cell Strain
In a Falcon 6-well plate for tissue culture (Becton Dickinson, Code No. 35-3046), 3.0×10^5 of 293 cells derived from human embryo kidney (American Type Culture Collection) were distributed and cultured overnight. The STAT6 reporter gene (1.5 μg), the STAT6 gene (1.5 μg) that were prepared and lipofectamine (GIBCO BRL, Code No. 18324-012) (20 μL) were mixed in OPTI-MEM culture medium (GIBCO BRL, Code No. 31985-070) (0.3 mL), and allowed to stand at room temperature for 20 minutes. Thereafter, the OPTI-MEM culture medium (1.2 mL) was further added, OPTI-MEM culture medium not containing fetal calf serum was added to washed cells, which were cultured for 2 hours. A culture medium (1.5 mL) containing fetal calf serum was added, and the cells were cultured for 19 more hours. The culture was continued by exchanging the culture medium and adding Geneticin (SIGMA, Code No. G-5013) so as to obtain 1 mg/mL, and cells with drug tolerance were selected. The selected drug tolerant cells were suspended in a culture medium containing 1 mg/mL of Geneticin, and distributed in a 96-well microplate (Becton Dickinson, Code No. 35-3072) so as to obtain 0.5 cells/well to carrry out cloning, and the clones expressing alkaline phosphatase in response to IL-4 were collected.
4) STAT6 Activation Inhibition Test
Cells stably expressing the STAT6 gene and the STAT6 reporter gene, and expressing alkaline phosphatase in response to IL-4 were distributed in a 96-well microplate (Becton Dickinson, Code No. 35-3072) so as to obtain 5000 cells/180 μL/well, and cultured overnight. […]

Compound | IC50 | IC50 (Homo sapiens, HEK293)
CCNC(=O)O/N=C1/CCCc2c(S(=O)(=O)N(C)CC(O)c3ccc(F)cc3)csc21 (centres unmarked) [Example 83, (7z)-7-({[(Ethylamino)carbonyl]oxo}imino)-3-{[[2-(4-fluorophenyl)-2-hydroxyethyl](methyl)amino]sulfonyl}-4,5,6,7-tetrahydro-1-benzothiophene] | 34 nM | –
CN(C[C@H](O)c1ccc(F)cc1)S(=O)(=O)c1csc2c1CCC/C2=N/O [Example 14, (7Z)-N-[(2R)-2-(4-Fluorophenyl)-2-hydroxyethyl]-7-(hydroxyimino)-N-methyl-4,5,6,7-tetrahydro-1-benzothiophene-3-sulfonamide] | – | 30 nM
C/C(=N/O)c1cc(S(=O)(=O)N(C)CC(O)c2ccc(F)cc2)c(N)s1 (centres unmarked) [Example 52, 2-Amino-5-[(1Z)-hydroxyimino-ethyl]-thiophene-3-sulfonic acid [2-(4-fluorophenyl)-2-hydroxyethyl]-methyl-amide] | 7.9 nM | –
CN(CC(O)c1ccncc1)S(=O)(=O)c1csc2c1CCC/C2=N/O (centres unmarked) [Example 21, (7Z)-7-Hydroxyimino-4,5,6,7-tetrahydro-benzo[b]thiophene-3-sulfonic acid (2-hydroxy-2-pyridine-4-yl-ethyl)-methyl-amide] | – | 5.6 nM
CN(CC(O)c1ccc(F)cc1)S(=O)(=O)c1csc2c1CCC/C2=N/OC(=O)C(C)(C)C (centres unmarked) [Example 88, (7Z)-7-{[(2,2-Dimethylpropanoyl)oxy]imino}-N-[2-(4-fluorophenyl)-2-hydroxyethyl]-N-methyl-4,5,6,7-tetrahydro-1-benzothiophene-3-sulfonamide] | – | 0.42 nM
CN(CCc1ccccc1)C(=O)c1csc2c1CCC/C2=N/O [Example 110, (7Z)-7-Hydroxyimino-4,5,6,7-tetrahydrobenzo[b]thiophene-3-carboxylic acid methylphenethyl amide] | – | 0.32 nM
CN(CCc1ccc(F)cc1)S(=O)(=O)c1csc2c1CCC/C2=N/O [Example 3, (7Z)-7-Hydroxyimino-4,5,6,7-tetrahydro-benzo[b]thiophene-3-sulfonic acid[2-(4-fluorophenyl)-ethyl]-methyl-amide] | 0.6 nM | –
(7Z)-N-{1-(4-Fluorophenyl)-2-[(7-hydroxyimino-4,5,6,7-tetrahydrobe nzo[b]-thiophene-3-sulfonyl)methylamino]ethyl}acetamide [Example 23] | 9.5 nM | –
CN(CCc1ccc(F)c([N+](=O)[O-])c1)S(=O)(=O)c1csc2c1CCC/C2=N/O [Example 6, (7Z)-7-Hydroxyimino-4,5,6,7-tetrahydro-benzo[b]thiophene-3-sulfonic acid[2-(4-fluoro-3-nitro-phenyl)-ethyl]-methyl-amide] | 4.9 nM | –
CC(C)/C(=N/O)c1cc(S(=O)(=O)N(C)CCc2ccc(F)cc2)c(N)s1 [Example 63, 2-Amino-5-[(1Z)-hydroxyimino-2-methylpropyl]thiophene-3-sulfonic acid[2-(4-fluorophenyl)ethyl]-methyl-amide] | 40 nM | –
CCc1cccc(NC(=O)O/N=C2/CCCc3c(S(=O)(=O)N(C)CC(O)c4ccc(F)cc4)csc32)c1 (centres unmarked) [Example 66, (7Z)-7-({[(3-Ethylanilino)carbonyl]oxo}imino)-3-{[[2-(4-fluorophenyl)-2-hydroxyethyl](methyl)amino]sulfonyl}-4,5,6,7-tetrahydro-1-benzothiophene] | 16 nM | –
CN(CCc1ccc(F)cc1[N+](=O)[O-])S(=O)(=O)c1csc2c1CCC/C2=N/O [Example 5, (7Z)-7-Hydroxyimino-4,5,6,7-tetrahydro-benzo[b]thiophene-3-sulfonic acid[2-(4-fluoro-2-nitro-Phenyl)-ethyl]-methyl-amide] | 21 nM | –
CC(C)C(=NO)c1cc(S(=O)(=O)N(C)CC(O)c2ccc(F)cc2)cs1 (centres unmarked) [Example 48, 5-(1-Hydroxyimino-2-methylpropyl)thiophene-3-sulfonic acid [2-(4-fluorophenyl)-2-hydroxyethyl]-methyl-amide] | – | 30 nM
CC(C)C(=NO)c1cc(S(=O)(=O)N(C)CCc2ccc(F)cc2)cs1 [Example 47, 5-(1-Hydroxyimino-2-methylpropyl)thiophene-3-sulfonic acid [2-(4-fluorophenyl)-ethyl]-methyl-amide] | – | 12 nM
CN(CCc1ccncc1)S(=O)(=O)c1csc2c1CCC/C2=N/O [Example 9, (7Z)-7-Hydroxyimino-4,5,6,7-tetrahydro-benzo[b]thiophene-3-sulfonic acid methyl-(2-pyridine-4-yl-ethyl)-amide] | – | 0.82 nM
CN(CC(NC(N)=O)c1ccc(F)cc1)S(=O)(=O)c1csc2c1CCCC2=NO (centres unmarked) [Example 25, 7-Hydroxyimino-4,5,6,7-tetrahydrobenzo[b]thiophene-3-sulfonic acid [(2-(4-fluorophenyl)-2-ureideethyl)]-methyl-amide] | 13 nM | –
CC(C)C(=NO)c1cc(S(=O)(=O)N(C)CC(O)c2ccc(F)cc2)c(N)s1 (centres unmarked) [Example 64, 2-Amino-5-(1-hydroxyimino-2-methylpropyl)thiophene-3-sulfonic acid[2-(4-fluorophenyl)-2-hydroxyethyl]-methyl-amide] | 40 nM | –
CC1CCc2c(S(=O)(=O)N(C)CC(O)c3ccc(F)cc3)csc2/C1=N\O (centres unmarked) [Example 32, (7Z)-7-Hydroxyimino-6-methyl-4,5,6,7-tetrahydrobenzo[b]-thiophene-3-sulfonic acid[(2-(4-fluorophenyl)-2-hydroxyethyl)]-methyl-amide] | 10.1 nM | –
CN(C[C@@H](O)c1ccc(F)cc1)S(=O)(=O)c1csc2c1CCC/C2=N/O [Example 13, (7Z)-N-[(2S)-2-(4-Fluorophenyl)-2-hydroxyethyl]-7-(hydroxyimino)-N-methyl-4,5,6,7-tetrahydro-1-benzothiophene-3-sulfonamide] | – | 0.36 nM
CN(CC(O)c1ccc(F)cc1)S(=O)(=O)c1c(N)sc2c1CCC/C2=N/O (centres unmarked) [Example 26, (7Z)-2-Amino-7-hydroxyimino-4,5,6,7-tetrahydro-benzo[b]-thiophene-3-sulfonic acid [2-(4-fluorophenyl)-2-hydroxyethyl]-methyl-amide] | – | 2.6 nM
